{"source": "BindingDB's records for doi:10.1093/toxsci/kfq269", "about": "(Amgen, 2010)", "target": "Bile salt export pump (Homo sapiens, UniProt O95342)", "experiment": "ChEBML_1661982", "procedure": "Inhibition of human BSEP expressed in fall armyworm sf9 cell plasma membrane vesicles assessed as reduction in vesicle-associated [3H]-taurocholate transport preincubated for 10 mins prior to ATP addition measured after 15 mins in presence of [3H]-taurocholate by topcount based membrane vesicle transport assay", "note": "pIC50: −log10 of the molar value."}
{"smiles": "O=C1OC2(c3ccc(O)cc3Oc3cc(O)ccc32)c2ccccc21", "values": [{"measurement": "pIC50", "value": "< 3.87"}]}
